{
  "source": "paper PMC4556985",
  "about": "“Inhibitors of ORAI1 Prevent Cytosolic Calcium-Associated Injury of Human Pancreatic Acinar Cells and Acute Pancreatitis in 3 Mouse Models” (Gastroenterology, 2015)",
  "molecular_target": "T1, ORAI1 (Homo sapiens, UniProt Q96D31)",
  "T1 construct": "with STIM1 (human, co-expressed)",
  "T1 sequence (Q96D31 whole entry)": "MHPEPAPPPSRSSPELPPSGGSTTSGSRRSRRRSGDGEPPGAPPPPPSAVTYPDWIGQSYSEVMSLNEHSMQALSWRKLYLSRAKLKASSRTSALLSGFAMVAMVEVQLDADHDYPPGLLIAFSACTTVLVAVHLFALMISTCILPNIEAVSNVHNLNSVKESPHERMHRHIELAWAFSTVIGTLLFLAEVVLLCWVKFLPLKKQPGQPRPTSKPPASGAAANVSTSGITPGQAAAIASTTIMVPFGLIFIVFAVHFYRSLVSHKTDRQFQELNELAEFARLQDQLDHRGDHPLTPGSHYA",
  "T1 sequence (Q13586 23-685 partner)": "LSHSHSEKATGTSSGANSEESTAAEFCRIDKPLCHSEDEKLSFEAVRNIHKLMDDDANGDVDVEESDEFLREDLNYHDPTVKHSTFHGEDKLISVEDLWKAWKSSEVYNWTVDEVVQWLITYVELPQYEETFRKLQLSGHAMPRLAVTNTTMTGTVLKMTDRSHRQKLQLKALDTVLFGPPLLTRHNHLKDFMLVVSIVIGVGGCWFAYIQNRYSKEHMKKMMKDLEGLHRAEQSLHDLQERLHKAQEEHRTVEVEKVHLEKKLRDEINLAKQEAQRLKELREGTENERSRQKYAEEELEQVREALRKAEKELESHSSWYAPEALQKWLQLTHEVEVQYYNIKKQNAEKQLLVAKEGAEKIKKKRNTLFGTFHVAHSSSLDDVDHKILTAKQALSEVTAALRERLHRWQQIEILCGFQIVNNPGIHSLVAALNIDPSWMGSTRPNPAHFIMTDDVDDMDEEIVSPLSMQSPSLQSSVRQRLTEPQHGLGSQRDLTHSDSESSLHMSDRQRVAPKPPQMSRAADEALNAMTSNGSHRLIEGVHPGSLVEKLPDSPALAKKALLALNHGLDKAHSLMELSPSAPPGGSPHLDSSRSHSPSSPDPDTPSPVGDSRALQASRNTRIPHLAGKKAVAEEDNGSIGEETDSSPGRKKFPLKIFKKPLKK",
  "test": "whole-cell patch clamp of ICRAC in HEK […] cells stably expressing hORAI1/hSTIM1",
  "format": "cell-based",
  "data": [
    {"compound": "Cc1cccc(F)c1C(=O)Nc1cnc(-c2cc3c(cc2Cl)OC(F)(F)O3)cn1", "note": "[CM_128]", "values": [
      {"measurement": "IC50", "value": "~100", "unit": "nM"}
    ]}
  ]
}
